Laboratory results published in patent US20240309360A1, “TRANS-ACTIVATORS AND METHODS AND USE THEREOF” (THE GOVERNING COUNCIL OF THE UNIVERSITY OF TORONTO, priority 2021, published 2024).

Tested on: EGFP reporter (7×TetO array, basal CMV promoter) in HEK293T reporter cell line
Assay: TAD-seq pooled activation screen of 60-aa fragments fused to PYL1
Type: cell-based, human
Details: for Hit high GFP: high GFP population (top 1%); for logFC high GFP / logFC medium GFP: log 2 fold change of counts, 100 μM ABA 48 hours; for logFC high GFP: sorted high GFP cells (top 1%) vs unsorted cells; for logFC medium GFP: sorted medium GFP cells (top 2-5%) vs unsorted cells; for Hit medium GFP: medium GFP population (top 2-5%); call rule not given here
Source text: A fragment library of 75 activators identified in our screen was generated, using 60 amino-acid tiles every 20 aa such that every amino acid was represented by three different fragments (FIG. 3A). The pooled fragment library was fused to PYL1 and recruited to the same GFP reporter used in the original ORFeome screen (FIG. 3A). […] The GFP positive population was sorted into two independent replicates, and fragments in each population were quantified by sequencing. However, in contrast to the ORFeome screen, both high GFP cells (top 1%) and medium GFP cells (top 2-5%) were sorted to potentially identify transactivators of different strength.
Activation domain tiling library generation. A tiling library was generated from 75 proteins identified as activators in the ORFeome screen. Oligonucleotides containing a 5′ adapter […] (SEQ ID NO: 23) and a 3′ adapter […] (SEQ ID NO: 24) to generate a 5′ adapter ([…]) (SEQ ID NO: 11) and a 3′ adapter ([…]) (SEQ ID NO: 12) were synthesized as pooled libraries (Twist Biosciences). 6×50 μl PCR reactions were set up using NEBNext Ultra II Q5 master mix (New England Biolabs) with 5 nM oligos as template. PCR conditions were optimized to find the lowest cycle with a clean visible product at the expected 300 bp length. The thermocycling condition was an initial 30 s at 98° C., then 2 cycles of 98° C. for 10 s, 63° C. for 20 s, and 72° C. for 15 s, followed by 10 more cycles of 98° C. for 10 s and 72° C. for 30 s with a final extension at 72° C. for 5 min. Primers were designed to have Gateway compatible flanking sequences. The resulting libraries were gel extracted by QIAgen gel extraction kit after loading on a 2% TAE gel for 2 hrs at 60V and subsequently cloned into pDONR221 using 20 separate BP reactions in total of 5 μl reactions. The entry plasmid pool was transformed after an overnight reaction into DHSalpha competent E. coli and incubated overnight on LB agar plates containing kanamycin ([…]). Colonies were collected and plasmid DNA purified. 20 LR reactions were then set up as described in the previous section. Each reaction was transformed into NEB 10-beta chemically competent E. coli and grown on LB agar plates containing carbenicillin ([…]) overnight at 30° C. Colonies were counted to ensure >200-fold coverage at each step of cloning, pooled and maxiprepped.
Pooled activation screens. ORFeome and transactivation tiling libraries tagged at the C-terminus with PYL1 were packaged into lentiviral particles. A clonal EGFP reporter cell line stably co-expressing ABI-dCas9 and a gRNA targeting the promoter were transduced at low multiplicity of infection (MOI) with approximately 30% cell survival after puromycin (1 μg/mL) selection. Untransduced cells under the same condition were fully eliminated. Sufficient cells were transduced to maintain >500 fold coverage of the libraries. Recruitment was induced by treating cells with 100 μM abscisic acid (ABA, Sigma) for 48 hours. In parallel, a control batch of cells were treated with equal total volume of DMSO. Cells were then washed in PBS, treated with dissociation buffer (1 mM EDTA, 10 mM KCl, 150 mM NaCl, 5 mM sodium bicarbonate, 0.1% glucose) and resuspended in flow buffer (5 mM EDTA, 25 mM HEPES pH 7, 1% BSA, PBS). High GFP population for each library, top 1% for ORFeome and two bins of top 1% and the next 4% for the TAD screen, were sorted and their genomic DNA directly extracted using QIAmp DNA Blood Mini Kit (QIAGEN).
TAD sequencing. Performed nested PCR on the purified genomic DNA using primers targeting T7 promoter and PYL1 of the backbone vector in the first step creating a ˜470 bp product. Products of the first reaction were then pooled and amplified for an additional 10 steps using primers targeting outside the Gateway sites creating a ˜300 bp product. Libraries were quantified on Qubit dsDNA Broad Range kit and paired-end sequenced on an Illumina MIseq with a custom PAGE-purified R1 sequencing primer. […]

Row | Substance | Hit high GFP | logFC high GFP | logFC medium GFP | Hit medium GFP
1 | FAM90A1-19: 60-aa TAD-seq fragment of FAM90A1 (RQPPHSRPCLPTAQACTMSHHPAASHDGAQPLRVLFRRLENGRWSSSLLTAPSFHSPEKP; listed as Homo sapiens) | hit | 2.051 | 1.557 | hit
2 | HOXA2-4: 60-aa TAD-seq fragment of HOXA2 (PGSHPRHGAGGRPKPSPAGSRGSPVPAGALQPPEYPWMKEKKAAKKTALLPAAAAAATAA; listed as Homo sapiens) | – | 1.664 | 1.595 | hit
3 | HOXA2-5: 60-aa TAD-seq fragment of HOXA2 (RGSPVPAGALQPPEYPWMKEKKAAKKTALLPAAAAAATAAATGPACLSHKESLEIADGSG; listed as Homo sapiens) | – | 1.684 | 2.311 | hit
4 | HOXA2-6: 60-aa TAD-seq fragment of HOXA2 (KKAAKKTALLPAAAAAATAAATGPACLSHKESLEIADGSGGGSRRLRTAYTNTQLLELEK; listed as Homo sapiens) | – | 1.951 | 1.738 | hit
5 | HSF1-20: 60-aa TAD-seq fragment of HSF1 (KNELSDHLDAMDSNLDNLQTMLSSHGFSVDTSALLDLFSPSVTVPDMSLPDLDSSLASIQ; listed as Homo sapiens) | – | 0.6234 | 0.7077 | hit
6 | HSF1-21: 60-aa TAD-seq fragment of HSF1 (MLSSHGFSVDTSALLDLFSPSVTVPDMSLPDLDSSLASIQELLSPQEPPRPPEAENSSPD; listed as Homo sapiens) | – | 0.432 | 0.8992 | hit
7 | HSF1-24: 60-aa TAD-seq fragment of HSF1 (SGKQLVHYTAQPLFLLDPGSVDTGSNDLPVLFELGEGSYFSEGDGFAEDPTISLLTGSEP; listed as Homo sapiens) | – | 0.6763 | 0.8092 | hit
8 | HSF1-25: 60-aa TAD-seq fragment of HSF1 (AQPLFLLDPGSVDTGSNDLPVLFELGEGSYFSEGDGFAEDPTISLLTGSEPPKAKDPTVS; listed as Homo sapiens) | – | 0.7725 | 1.153 | hit
9 | JAZF1-1: 60-aa TAD-seq fragment of JAZF1 (MTGIAAASFFSNTCRFGGCGLHFPTLADLIEHIEDNHIDTDPRVLEKQELQQPTYVALSY; listed as Homo sapiens) | – | 0.2848 | 0.6639 | hit
10 | KLF6-1: 60-aa TAD-seq fragment of KLF6 (MDVLPMCSIFQELQIVHETGYFSALPSLEEYWQQTCLELERYLQSEPCYVSASEIKFDSQ; listed as Homo sapiens) | hit | 5.453 | 1.868 | hit
11 | KLF7-2: 60-aa TAD-seq fragment of KLF7 (YFSALPSLEETWQQTCLELERYLQTEPRRISETFGEDLDCFLHASPPPCIEESFRRLDPL; listed as Homo sapiens) | – | 1.431 | 1.165 | hit
12 | KLF15-6: 60-aa TAD-seq fragment of KLF15 (GPVAWGPWRRAAAPVKGEHFCLPEFPLGDPDDVPRPFQPTLEEIEEFLEENMEPGVKEVP; listed as Homo sapiens) | hit | 2.467 | 1.202 | hit
13 | LIN9-25: 60-aa TAD-seq fragment of LIN9 (SRLTAILLQIKCLAEGGDLNSFEFKSLTDSLNDIKSTIDASNISCFQNNVEIHVAHIQSG; listed as Homo sapiens) | hit | 2.094 | 1.08 | –
14 | MYCBP-1: 60-aa TAD-seq fragment of MYCBP (MAHYKAADSKREQFRRYLEKSGVLDTLTKVLVALYEEPEKPNSALDFLKHHLGAATPENP; listed as Homo sapiens) | – | 1.017 | 0.73 | hit
15 | MYCL1-1: 60-aa TAD-seq fragment of MYCL1 (MDYDSYQHYFYDYDCGEDFYRSTAPSEDIWKKFELVPSPPTSPPWGLGPGAGDPAPGIGP; listed as Homo sapiens) | – | 1.137 | 0.7968 | hit
16 | MYOD1-2: 60-aa TAD-seq fragment of MYOD1 (CSFATTDDFYDDPCFDSPDLRFFEDLDPRLMHVGALLKPEEHSHFPAAVHPAPGAREDEH; listed as Homo sapiens) | – | 0.7025 | 0.8486 | hit
17 | NEUROD1-6: 60-aa TAD-seq fragment of NEUROD1 (LRRMKANARERNRMHGLNAALDNLRKVVPCYSKTQKLSKIETLRLAKNYIWALSEILRSG; listed as Homo sapiens) | – | 0.6708 | 0.9533 | hit
18 | NEUROG3-5: 60-aa TAD-seq fragment of NEUROG3 (RRSRRKKANDRERNRMHNLNSALDALRGVLPTFPDDAKLTKIETLRFAHNYIWALTQTLR; listed as Homo sapiens) | – | 0.06039 | 0.6713 | hit
19 | NPAS4-31: 60-aa TAD-seq fragment of NPAS4 (DVPLVPEGLLTPEASPVKQSFFHYSEKEQNEIDRLIQQISQLAQGMDRPFSAEAGTGGLE; listed as Homo sapiens) | – | 1.22 | 0.8563 | hit
20 | NPAS4-34: 60-aa TAD-seq fragment of NPAS4 (PLGGLEPLDSNLSLSGAGPPVLSLDLKPWKCQELDFLADPDNMFLEETPVEDIFMDLSTP; listed as Homo sapiens) | – | 0.946 | 0.9186 | hit
21 | NPAS4-36: 60-aa TAD-seq fragment of NPAS4 (DNMFLEETPVEDIFMDLSTPDPSEEWGSGDPEAEGPGGAPSPCNNLSPEDHSFLEDLATY; listed as Homo sapiens) | – | 0.671 | 1.209 | hit
22 | NPAS4-37: 60-aa TAD-seq fragment of NPAS4 (DPSEEWGSGDPEAEGPGGAPSPCNNLSPEDHSFLEDLATYETAFETGVSAFPYDGFTDEL; listed as Homo sapiens) | hit | 1.645 | 0.7019 | –
23 | NPAS4-39: 60-aa TAD-seq fragment of NPAS4 (CNNLSPEDHSFLEDLATYETAFETGVSAFPYDGFTDELHQLQSQVQDSFHEDGSGGEPTF; listed as Homo sapiens) | – | 0.798 | 0.7684 | hit
24 | RELB-2: 60-aa TAD-seq fragment of RELB (RRVARPPAAPELGALGSPDLSSLSLAVSRSTDELEIIDEYIKENGFGLDGGQPGPGEGLP; listed as Homo sapiens) | hit | 2.147 | 1.711 | hit
25 | RELB-3: 60-aa TAD-seq fragment of RELB (SSLSLAVSRSTDELEIIDEYIKENGFGLDGGQPGPGEGLPRLVSRGAASLSTVTLGPVAP; listed as Homo sapiens) | hit | 1.768 | 1.803 | hit
